pIC50: −log10 of the molar value. Like-named read-outs stand apart in the source and are kept apart here. One block for each compound: values may come before it.
Experiments:
[1] = in vivo pharmacokinetics in male ICR mice, IV and PO; parameters: species or system mouse (male ICR mice); details: for clearance / half-life / AUC: mouse plasma; for clearance: read-out: intravenous injection administration (IV) C1; for AUC: read-out: Oral administration by gavage (PO) AUC; for bioavailability: plasma, mouse, PO 2 mpk, IV 1 mpk
Text: This example relates to the evaluation of the pharmacokinetic properties of (hetero)aryl imidazole compounds containing an aromatic substituent. Specifically, this experiment evaluated the in vivo pharmacokinetic properties of some of the (hetero)aryl imidazole compounds with an aromatic substituent synthesized in Example 1 in mice under intravenous (IV) and oral (PO) administration.
The animals used in this experiment were male ICR mice, which were obtained from Beijing Weitonglihua Experimental Animal Technology Co., Ltd. IV/PO administration was performed with a single drug or a combination of drugs (Cassette, no more than five drugs), the solvent was 5% DMSO+10% Solutol+85% Saline, the compound concentration was 0.2 mg/mL, and the IV/PO administration volume was 5/10 mL/kg, respectively. The animals in the oral administration group were fasted overnight before administration and fed 4 hours after administration. After administration, blood was collected from the cheek at the set time of the experiment. About 50 μL was collected for each sample and anticoagulated with sodium heparin. After collection, the blood was placed on wet ice and centrifuged within 1 hour to separate the plasma (6000 rpm, 3 minutes, 2-8° C.). Plasma samples were stored at −80° C. before analysis. The plasma samples were diluted and analyzed by LC-MS/MS to determine the blood drug concentration data in the samples at different time points, and Phoenix WinNonlin 8.2.0 was used to calculate the pharmacokinetic parameters.

[2] = target: T1, soluble epoxide hydrolase (sEH) (Homo sapiens, UniProt P34913); assay: in vitro biochemical activity test, sEH enzyme inhibition with EET substrate (LC-MS); details: 90 min pre-incubation at room temperature, 60 min reaction
T1 sequence (P34913 1-555): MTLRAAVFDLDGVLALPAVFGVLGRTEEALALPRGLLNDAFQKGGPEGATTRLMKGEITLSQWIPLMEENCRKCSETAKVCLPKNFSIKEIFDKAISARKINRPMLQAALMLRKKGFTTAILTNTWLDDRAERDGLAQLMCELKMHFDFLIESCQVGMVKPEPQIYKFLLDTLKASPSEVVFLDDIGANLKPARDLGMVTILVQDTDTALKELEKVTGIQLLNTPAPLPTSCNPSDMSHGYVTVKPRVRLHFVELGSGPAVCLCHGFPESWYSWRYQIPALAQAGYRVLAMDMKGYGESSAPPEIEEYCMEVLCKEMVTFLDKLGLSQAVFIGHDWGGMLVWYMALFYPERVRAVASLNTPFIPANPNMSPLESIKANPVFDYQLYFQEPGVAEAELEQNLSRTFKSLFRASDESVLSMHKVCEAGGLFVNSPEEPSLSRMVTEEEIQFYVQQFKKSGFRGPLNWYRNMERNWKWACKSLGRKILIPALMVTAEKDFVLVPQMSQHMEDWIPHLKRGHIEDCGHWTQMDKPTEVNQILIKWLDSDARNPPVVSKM

[3] = target: T1, soluble epoxide hydrolase (sEH); assay: PHOME assay activity test, sEH enzyme inhibition (fluorescence); assay type: biochemical; details: PHOME 5 μM, pH 7.0; 10 min pre-incubation; test compound concentration range 20 nM-0.082 nM
Method: This example relates to the relationship between the structure and activity of (hetero)aryl imidazole compounds containing an aromatic substituent. Specifically, the biochemical activity of the (hetero)aryl imidazole compounds containing an aromatic substituent described herein as sEH enzyme inhibitors was evaluated by PHOME assay activity test experiment. The synthesis of the substrates and the test methods required for this test were all based on known literature reports (Analytical Biochemistry 2005, 343, 66-75).
The sEH enzyme activity inhibition experiment was performed in a low binding 96-well plate. The reaction system was 100 μL 25 mM Bis-Tris, pH 7.0, 0.1 mg/mL BSA buffer. The experimental steps of PHOME assay activity test were as follows.
First, a sEH enzyme solution with a final concentration of […] was mixed with compounds of different concentrations (test compound concentration range 20 nM-0.082 nM), and then pre-incubated on a shaker at room temperature for 10 min. The reaction was triggered by adding Phome fluorescent substrate at a final concentration of 5 μM and immediately placed in a Perkin Elmer microplate reader for dynamic monitoring for 1 hour at an excitation wavelength of 330 nm and an emission wavelength of 465 nm, with fluorescence readings at intervals of 1 minute. Graphpad Prism 9.0 software was used to calculate the slope of the fluorescence value increase in each well within 20 minutes, and the slope was used to calibrate the enzyme activity to calculate the inhibition rate of the compound on sEH enzyme activity under different concentration conditions. Finally, Graphpad Prism 9 was used to plot and calculate IC50 values.
The inhibitory activity IC50 values of some compounds against soluble epoxide hydrolase obtained by PHOME assay activity evaluation experiment are shown in Table 4.

[4] = 1 mg/kg, IV, 1 mpk, read-out: intravenous injection administration (IV) T1/2 (converted)
[5] = 2 mg/kg, PO, 2 mpk, read-out: Oral administration by gavage (PO) T1/2 (converted)

Compound: Cc1nc(N)ncc1-c1cc2nc(-c3ccc(C(F)(F)F)cc3)[nH]c2c(F)c1F [Compound 8, 5-(4,5-difluoro-2-(4-(trifluoro-methyl)phenyl)-1H-benzo[d]imidazol-6-yl)-4-methylpyr-imidine-2-amine]
clearance ([1]; 1 mg/kg, IV, 1 mpk): 1.3 mL/min/kg | half-life [1, 4]: 5.9 h | AUC ([1]; 2 mg/kg, PO, 2 mpk): 19600 ng·h/mL | half-life [1, 5]: 6.4 h | bioavailability ([1]; 2 mg/kg): 76% | pIC50 [2]: 10.19

Compound: Nc1cc(Cl)c(-c2cc3[nH]c(-c4ccc(C(F)(F)F)cc4)nc3cc2F)cn1 [Compound 61, 2-(4-(trifluoromethyl)phenyl)-6-(6-amino-4-chloropyridin-3-yl)-5-fluoro-1H-benzo[d] imidazole]
clearance ([1]; 1 mg/kg, IV, 1 mpk): 1 mL/min/kg | half-life [1, 4]: 8.5 h | AUC ([1]; 2 mg/kg, PO, 2 mpk): 26100 ng·h/mL | half-life [1, 5]: 10.2 h | bioavailability ([1]; 2 mg/kg): 83%

Compound: Nc1ncc(-c2cc3[nH]c(-c4cccc(C(F)(F)F)c4)nc3c(F)c2F)c(C(F)F)n1 [Compound 80, 5-(2-(3-(trifluoromethyl)phen-yl)-4,5-difluoro-1H-benzo[d]imidazol-6-yl)-4-(difluoro-methyl)pyrimidine-2-amine]
pIC50 [3]: 9.19 | pIC50 [2]: 9.35

Compound: Nc1ncc(-c2cc3[nH]c(-c4ccc(C(F)(F)F)cc4)nc3c(F)c2F)c(C(=O)O)n1 [Compound 99, 2-amino-5-(2-(4-(trifluoro-methyl)phenyl)-4,5-difluoro-1H-benzo[d]imidazol-6-yl)-pyrimidine-4-carboxylic acid]
pIC50 [3]: 7.38

Results, then the compound that gave them:

pIC50 [3]: 9.44
Compound: Cc1cc(N)nnc1-c1cc2[nH]c(-c3ccc(C(F)(F)F)cc3)nc2c(F)c1F [Compound 103, 5-methyl-6-(2-(4-(trifluoro-methyl)phenyl)-4,5-difluoro-1H-benzo[d]imidazol-6-yl)-pyridazin-3-amine]

pIC50 [3]: 9.32
Compound: Nc1ncc(-c2cc3[nH]c(-c4ccc(OC(F)(F)F)c(F)c4)nc3c(F)c2F)c(C(F)F)n1 [Compound 90, 5-difluoro-1H-benzo[d]5-(2-(4-(trifluoromethoxy)-3-fluoro-phenyl)-4,5-difluoro-1H-benzo [d]imidazol-6-yl)-4-(difluoro-methyl)pyrimidine-2-amine]

pIC50 [3]: > 10.09
Compound: CN(C)c1nc(N)ncc1-c1cc2[nH]c(-c3ccc(C(F)(F)F)cc3)nc2c(F)c1F [Compound 92, 5-(2-(4-(trifluoromethyl)phen-yl)-4,5-difluoro-1H-benzo[d]imidazol-6-yl)-N4,N4-dimeth-ylpyrimidine-2,4-diamine]

pIC50 [3]: 9.85
Compound: Cc1nc(N2CC(C(=O)O)C2)ncc1-c1cc2[nH]c(-c3ccc(C(F)(F)F)cc3)nc2c(F)c1F [Compound 96, 1-(4-methyl-5-(2-(4-(trifluoro-methyl)phenyl)-4,5-difluoro-1H-benzo[d]imidazol-6-yl)-pyrimidine-2-yl)azetidine-3-carboxylic acid]

— patent US20260297065A1, “AROMATIC SUBSTITUENT-CONTAINING (HETERO) ARYL-IMIDAZOLE COMPOUND, AND PREPARATION METHOD THEREFOR AND USE THEREOF” (OPEN SOURCE THERAPEUTICS, priority 2022, published 2026)
